Measurements from patent USRE48335E1, “Polymyxin derivatives as antimicrobial compounds” (priority 2014, dated 2020).
≈ marks a conversion by molar mass, not a printed value. Read-outs that look alike come from different tables or passages of the source. Positions of bridges follow the written chain, without caps; N, C: chain ends. Non-standard residues stand in square brackets, D forms with d. Residues, ends and D or L forms follow the SMILES beside them. *: point of attachment. Phenylacetyl(3,4-Cl2) = O=C(Cc1ccc(Cl)c(Cl)c1)*; Hydrocinnamoyl = O=C(CCc1ccccc1)*; X37 = O=C(c1ccc(C(F)(F)F)cc1F)*; Decanoyl = CCCCCCCCCC(=O)*; Nonanoyl = CCCCCCCCC(=O)*; X28 = O=C(c1ccc(F)cc1Cl)*; X3 = O=C(c1ccc(Cl)cc1Cl)*; Octanoyl = CCCCCCCC(=O)*; Orn = NCCC[C@H](N)C(=O)O; X25 = Cc1cccc(C(=O)*)c1C; Dab = NCC[C@H](N)C(=O)O; Abu = CC[C@H](N)C(=O)O; Dap = NC[C@H](N)C(=O)O

Key:
Enterobacter cloacae = system: Enterobacter cloacae
Experimental: (§1) MICs of the lipopeptides (trifluoroacetic acid salt, TFA) were determined by broth microdilution in cation-adjusted Mueller-Hinton broth (CAMHB) (Oxoid Australia, Thebarton, SA, Australia) according to Clinical and Laboratory Standards Institute standards (Clinical and Laboratory Standards Institute. Performance standards for antimicrobial susceptibility testing; eighteenth informational supplement M100-S18. Wayne, Pa., 2008). Polymyxin B (sulphate) was employed as control. […]

Acinetobacter baumannii = system: Acinetobacter baumannii
Experimental: as §1

Pseudomonas aeruginosa = system: Pseudomonas aeruginosa
Experimental: as §1

[1] = Enterobacter cloacae FADDI-EC001, broth microdilution in CAMHB, TFA salt
[2] = Enterobacter cloacae FADDI-EC003, broth microdilution in CAMHB, TFA salt
[3] = Enterobacter cloacae FADDI-EC006, broth microdilution in CAMHB, TFA salt
[4] = Acinetobacter baumannii ATCC 17978, broth microdilution in CAMHB, TFA salt
[5] = Acinetobacter baumannii ATCC 19606, broth microdilution in CAMHB, TFA salt
[6] = Acinetobacter baumannii FADDI-AB034, broth microdilution in CAMHB, TFA salt
[7] = Pseudomonas aeruginosa ATCC 27853, broth microdilution in CAMHB, TFA salt
[8] = Pseudomonas aeruginosa FADDI-PA022, broth microdilution in CAMHB, TFA salt
[9] = Pseudomonas aeruginosa FADDI-PA025, broth microdilution in CAMHB, TFA salt

| Compound | Minimum inhibitory concentration, Ec FADDI-EC001 (Enterobacter cloacae) [µg/mL] | Minimum inhibitory concentration, Ec FADDI-EC003 (Enterobacter cloacae) [µg/mL] | Minimum inhibitory concentration, Ec FADDI-EC006 (Enterobacter cloacae) [µg/mL] | Minimum inhibitory concentration, Ab A ATCC 17978 (Acinetobacter baumannii) [µg/mL] | Minimum inhibitory concentration, Ab ATCC 19606 (Acinetobacter baumannii) [µg/mL] | Minimum inhibitory concentration, Ab FADDI-AB034 (Acinetobacter baumannii) [µg/mL] | Minimum inhibitory concentration, Pa ATCC 27853 (Pseudomonas aeruginosa) [µg/mL] | Minimum inhibitory concentration, Pa FADDI-PA022 (Pseudomonas aeruginosa) [µg/mL] | Minimum inhibitory concentration, Pa FADDI-PA025 (Pseudomonas aeruginosa) [µg/mL] | other results |
| --- | --- | --- | --- | --- | --- | --- | --- | --- | --- | --- |
| CC[C@@H]1NC(=O)[C@@H](CC(C)C)NC(=O)[C@H](CCN)NC(=O)[C@@H](NC(=O)[C@H](CCCN)NC(=O)[C@@H](NC(=O)[C@H](CCN)NC(=O)c2ccc(Cl)cc2Cl)[C@@H](C)O)CCNC(=O)[C@H]([C@@H](C)O)NC(=O)[C@H](CCN)NC(=O)[C@H](CCN)NC1=O [Compound 147] (X3-[Dab]T[Orn][Dab][Dab][dL][Abu][Dab][Dab]T; lactam 4-C) | – | – | – | – | – | – | – | – | – | Minimum inhibitory concentration (MIC), Ec FADDI-EC001 (Enterobacter cloacae; [1]): <0.125 µg/mL; Minimum inhibitory concentration (MIC), Ec FADDI-EC003 (Enterobacter cloacae; [2]): 1 µg/mL; Minimum inhibitory concentration (MIC), Ec FADDI-EC006 (Enterobacter cloacae; [3]): 1 µg/mL; Minimum inhibitory concentration (MIC), Ab ATCC 17978 (Acinetobacter baumannii; [4]): 4 µg/mL; Minimum inhibitory concentration (MIC), Ab ATCC 19606 (Acinetobacter baumannii; [5]): 4 µg/mL; Minimum inhibitory concentration (MIC), Ab FADDI-AB034 (Acinetobacter baumannii; [6]): 2 µg/mL; Minimum inhibitory concentration (MIC), Pa ATCC 27853 (Pseudomonas aeruginosa; [7]): 1 µg/mL; Minimum inhibitory concentration (MIC), Pa FADDI-PA022 (Pseudomonas aeruginosa; [8]): 1 µg/mL; Minimum inhibitory concentration (MIC), Pa FADDI-PA025 (Pseudomonas aeruginosa; [9]): >32 µg/mL |
| CC[C@@H]1NC(=O)[C@@H](CC(C)C)NC(=O)[C@H](CCN)NC(=O)[C@@H](NC(=O)[C@H](CN)NC(=O)[C@@H](NC(=O)[C@H](CCN)NC(=O)c2cccc(C)c2C)[C@@H](C)O)CCNC(=O)[C@H]([C@@H](C)O)NC(=O)[C@H](CCN)NC(=O)[C@H](CCN)NC1=O [Compound 91] (X25-[Dab]T[Dap][Dab][Dab][dL][Abu][Dab][Dab]T; lactam 4-C) | <0.125 | <0.125 | 0.5 (≈ 0.447 µM) | 1 (≈ 0.893 µM) | 4 (≈ 3.57 µM) | 2 (≈ 1.79 µM) | 0.5 (≈ 0.447 µM) | 2 (≈ 1.79 µM) | 4 (≈ 3.57 µM) | – |
| CCCCCCCCCC(=O)N[C@@H](CCN)C(=O)N[C@H](C(=O)N[C@H](CO)C(=O)N[C@H]1CCNC(=O)[C@H]([C@@H](C)O)NC(=O)[C@H](CCN)NC(=O)[C@H](CCN)NC(=O)[C@H]([C@@H](C)O)NC(=O)[C@@H](CC(C)C)NC(=O)[C@H](CCN)NC1=O)[C@@H](C)O [Compound 9] (Decanoyl-[Dab]T[dS][Dab][Dab][dL]T[Dab][Dab]T; lactam 4-C) | 0.5 (≈ 0.432 µM) | 1 (≈ 0.863 µM) | 1 (≈ 0.863 µM) | 1 (≈ 0.863 µM) | 0.25 (≈ 0.216 µM) | 0.5 (≈ 0.432 µM) | 4 (≈ 3.45 µM) | 8 (≈ 6.91 µM) | 32 (≈ 27.6 µM) | – |
| CC[C@@H]1NC(=O)[C@@H](CC(C)C)NC(=O)[C@H](CCN)NC(=O)[C@@H](NC(=O)[C@H](CN)NC(=O)[C@@H](NC(=O)[C@H](CCN)NC(=O)c2ccc(C(F)(F)F)cc2F)[C@@H](C)O)CCNC(=O)[C@H]([C@@H](C)O)NC(=O)[C@H](CCN)NC(=O)[C@H](CCN)NC1=O [Compound 137] (X37-[Dab]T[Dap][Dab][Dab][dL][Abu][Dab][Dab]T; lactam 4-C) | – | – | – | – | – | – | – | – | – | Minimum inhibitory concentration (MIC), Ec FADDI-EC001 (Enterobacter cloacae): <0.125 µg/mL; Minimum inhibitory concentration (MIC), Ec FADDI-EC003 (Enterobacter cloacae): <0.125 µg/mL; Minimum inhibitory concentration (MIC), Ec FADDI-EC006 (Enterobacter cloacae): <0.125 µg/mL; Minimum inhibitory concentration (MIC), Ab ATCC 17978 (Acinetobacter baumannii): 0.25 µg/mL (≈ 0.212 µM); Minimum inhibitory concentration (MIC), Ab ATCC 19606 (Acinetobacter baumannii): 0.5 µg/mL (≈ 0.425 µM); Minimum inhibitory concentration (MIC), Ab FADDI-AB034 (Acinetobacter baumannii): 0.25 µg/mL (≈ 0.212 µM); Minimum inhibitory concentration (MIC), Pa ATCC 27853 (Pseudomonas aeruginosa): 0.5 µg/mL (≈ 0.425 µM); Minimum inhibitory concentration (MIC), Pa FADDI-PA022 (Pseudomonas aeruginosa): 1 µg/mL (≈ 0.849 µM); Minimum inhibitory concentration (MIC), Pa FADDI-PA025 (Pseudomonas aeruginosa): 4 µg/mL (≈ 3.4 µM) |
| CCCCCCCC(=O)N[C@@H](CN)C(=O)N[C@H](C(=O)N[C@H](CO)C(=O)N[C@H]1CCNC(=O)[C@H]([C@@H](C)O)NC(=O)[C@H](CCN)NC(=O)[C@H](CCN)NC(=O)[C@H]([C@@H](C)O)NC(=O)[C@@H](CC(C)C)NC(=O)[C@H](CCN)NC1=O)[C@@H](C)O [Compound 13] (Octanoyl-[Dap]T[dS][Dab][Dab][dL]T[Dab][Dab]T; lactam 4-C) | 0.25 (≈ 0.224 µM) | 0.25 (≈ 0.224 µM) | 0.5 (≈ 0.448 µM) | 1 (≈ 0.896 µM) | 1 (≈ 0.896 µM) | 0.5 (≈ 0.448 µM) | 4 (≈ 3.58 µM) | 4 (≈ 3.58 µM) | >32 | – |
| CC[C@@H]1NC(=O)[C@@H](CC(C)C)NC(=O)[C@H](CCN)NC(=O)[C@@H](NC(=O)[C@H](CN)NC(=O)[C@@H](NC(=O)[C@H](CCN)NC(=O)c2ccc(F)cc2Cl)[C@@H](C)O)CCNC(=O)[C@H]([C@@H](C)O)NC(=O)[C@H](CCN)NC(=O)[C@H](CCN)NC1=O [Compound 135] (X28-[Dab]T[Dap][Dab][Dab][dL][Abu][Dab][Dab]T; lactam 4-C) | <0.125 | <0.125 | <0.125 | 1 (≈ 0.874 µM) | 4 (≈ 3.5 µM) | 1 (≈ 0.874 µM) | 0.5 (≈ 0.437 µM) | 1 (≈ 0.874 µM) | 2 (≈ 1.75 µM) | – |
| CC[C@@H]1NC(=O)[C@@H](CC(C)C)NC(=O)[C@H](CCN)NC(=O)[C@@H](NC(=O)[C@H](CN)NC(=O)[C@@H](NC(=O)[C@H](CCN)NC(=O)Cc2ccc(Cl)c(Cl)c2)[C@@H](C)O)CCNC(=O)[C@H]([C@@H](C)O)NC(=O)[C@H](CCN)NC(=O)[C@H](CCN)NC1=O [Compound 81] ({Phenylacetyl(3,4-Cl2)}-[Dab]T[Dap][Dab][Dab][dL][Abu][Dab][Dab]T; lactam 4-C) | 0.25 (≈ 0.213 µM) | <0.125 | 0.25 (≈ 0.213 µM) | 0.5 (≈ 0.426 µM) | 1 (≈ 0.852 µM) | 0.25 (≈ 0.213 µM) | 2 (≈ 1.7 µM) | 4 (≈ 3.41 µM) | 1 (≈ 0.852 µM) | – |
| CCCCCCCC(=O)N[C@@H](CCCN)C(=O)N[C@H](C(=O)N[C@@H](CCN)C(=O)N[C@H]1CCNC(=O)[C@H]([C@@H](C)O)NC(=O)[C@H](CCN)NC(=O)[C@H](CCN)NC(=O)[C@H]([C@@H](C)O)NC(=O)[C@@H](CC(C)C)NC(=O)[C@H](CCN)NC1=O)[C@@H](C)O [Compound 32] (Octanoyl-[Orn]T[Dab][Dab][Dab][dL]T[Dab][Dab]T; lactam 4-C) | 1 (≈ 0.864 µM) | 1 (≈ 0.864 µM) | >32 | >32 | >32 | >32 | >32 | 1 (≈ 0.864 µM) | >32 | – |
| CC[C@@H]1NC(=O)[C@@H](CC(C)C)NC(=O)[C@H](CCN)NC(=O)[C@@H](NC(=O)[C@H](CN)NC(=O)[C@@H](NC(=O)[C@H](CCN)NC(=O)CCc2ccccc2)[C@@H](C)O)CCNC(=O)[C@H]([C@@H](C)O)NC(=O)[C@H](CCN)NC(=O)[C@H](CCN)NC1=O [Compound 145] (Hydrocinnamoyl-[Dab]T[Dap][Dab][Dab][dL][Abu][Dab][Dab]T; lactam 4-C) | – | – | – | – | – | – | – | – | – | Minimum inhibitory concentration (MIC), Ec FADDI-EC001 (Enterobacter cloacae; [1]): 0.5 µg/mL; Minimum inhibitory concentration (MIC), Ec FADDI-EC003 (Enterobacter cloacae; [2]): <0.125 µg/mL; Minimum inhibitory concentration (MIC), Ec FADDI-EC006 (Enterobacter cloacae; [3]): <0.125 µg/mL; Minimum inhibitory concentration (MIC), Ab ATCC 17978 (Acinetobacter baumannii; [4]): 0.5 µg/mL; Minimum inhibitory concentration (MIC), Ab ATCC 19606 (Acinetobacter baumannii; [5]): 1 µg/mL; Minimum inhibitory concentration (MIC), Ab FADDI-AB034 (Acinetobacter baumannii; [6]): 0.5 µg/mL; Minimum inhibitory concentration (MIC), Pa ATCC 27853 (Pseudomonas aeruginosa; [7]): 0.5 µg/mL; Minimum inhibitory concentration (MIC), Pa FADDI-PA022 (Pseudomonas aeruginosa; [8]): 0.5 µg/mL; Minimum inhibitory concentration (MIC), Pa FADDI-PA025 (Pseudomonas aeruginosa; [9]): 1 µg/mL |
| CCCCCCCCC(=O)N[C@@H](CCN)C(=O)N[C@H](C(=O)N[C@H](CO)C(=O)N[C@H]1CCNC(=O)[C@H]([C@@H](C)O)NC(=O)[C@H](CCN)NC(=O)[C@H](CCN)NC(=O)[C@H]([C@@H](C)O)NC(=O)[C@@H](CC(C)C)NC(=O)[C@H](CCN)NC1=O)[C@@H](C)O [Compound 17] (Nonanoyl-[Dab]T[dS][Dab][Dab][dL]T[Dab][Dab]T; lactam 4-C) | 0.25 (≈ 0.218 µM) | 0.25 (≈ 0.218 µM) | 0.5 (≈ 0.437 µM) | <0.125 | <0.125 | 0.25 (≈ 0.218 µM) | 2 (≈ 1.75 µM) | 4 (≈ 3.5 µM) | 16 (≈ 14 µM) | – |
